From patent publication US9738634B2, “Heterocyclic amide compound and herbicide” (SYNGENTA PARTICIPATIONS AG, priority 2013, dated 2017)

Experiments:
Assay type in all cases: in vivo
barnyard grass [1] = test: Test Example 1: weedkilling efficacy, preemergent weed treatment in the submerged state; A: barnyard grass; conditions: treatment dosage 320 g/ha
Outline: (§1)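 Submerged pre-emergence treatment, water-surface application of compound emulsion at g/ha dosages; 4 cm flooded alluvial soil, weeds sown and 2.5-leaf rice transplanted same day. Rated after 3 weeks, greenhouse.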

bulrush [2] = test: Test Example 1: weedkilling efficacy, preemergent weed treatment in the submerged state; B: bulrush; conditions: treatment dosage 320 g/ha
Outline: as §1

oval-leafed pondweed [3] = test: Test Example 1: weedkilling efficacy, preemergent weed treatment in the submerged state; C: oval-leafed pondweed; conditions: treatment dosage 320 g/ha
Outline: as §1

transplanted rice = test: Test Example 1: preemergent weed treatment in the submerged state, effect on crop; a: transplanted rice; conditions: treatment dosage 320 g/ha
Outline: as §1

barnyard grass [4] = test: Test Example 2: weedkilling efficacy, growth period weed treatment in the submerged state; A: barnyard grass; conditions: treatment dosage 320 g/ha
Outline: (§2)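 Seedlings at 1-2 leaves in 4 cm-deep submerged alluvial soil received emulsion formulations on the water surface, dosed per hectare; effects were judged 3 weeks on.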

bulrush [5] = test: Test Example 2: weedkilling efficacy, growth period weed treatment in the submerged state; B: bulrush; conditions: treatment dosage 320 g/ha
Outline: as §2

oval-leafed pondweed [6] = test: Test Example 2: weedkilling efficacy, growth period weed treatment in the submerged state; C: oval-leafed pondweed; conditions: treatment dosage 320 g/ha
Outline: as §2

crabgrass = test: Test Example 3: weedkilling efficacy through soil treatment; D: crabgrass; conditions: soil treatment, treatment dosage 320 g/ha
Outline: (§3)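 Crop and weed responses were judged three weeks after a uniform surface spray of the water-diluted emulsion at the given g/ha rate. Seeds sat beneath about 1.5 cm of sterilized diluvial soil, and boxes stood in a greenhouse at 25 to 30° C.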

green foxtail = test: Test Example 3: weedkilling efficacy through soil treatment; E: green foxtail; conditions: soil treatment, treatment dosage 320 g/ha
Outline: as §3

barnyard grass [7] = test: Test Example 3: weedkilling efficacy through soil treatment; F: barnyard grass; conditions: soil treatment, treatment dosage 320 g/ha
Text: Weedkilling Efficacy Test Through Soil Treatment
Sterilized diluvial soil was introduced into 21 cm long, 13 cm wide, 7 cm deep plastic boxes, and seeds of crabgrass, green foxtail, barnyard grass, wild oat, black-grass, Italian ryegrass, common wind-grass, Indian mallow, redroot pigweed, fig-leafed goosefoot, chickweed, catchweed, birds-eye speedwell, corn, soybean, rice, wheat, beet and rapeseed were each spot-sown, and covered with about 1.5 cm of soil. Next, emulsions of compounds of the present invention prepared according to compounding example 2 were diluted with water to give the specified dosages, and applied uniformly onto the soil surface with a small sprayer. The plants were grown by placing the plastic boxes in a greenhouse at 25 to 30° C., and 3 weeks after the pesticide treatment the effect on each type of plant was investigated on the basis of the assessment criteria of test example 1.
A: barnyard grass, B: bulrush, C: oval-leafed pondweed, D: crabgrass, E: green foxtail, F: barnyard grass, G: wild oat, H: black-grass, I: Italian ryegrass, J: common wind-grass, K: Indian mallow, L: redroot pigweed, M: fig-leafed goosefoot, N: chickweed, O: catchweed, p: birds-eye speedwell, a: transplanted rice, b: directly sown rice, c: corn, d: soybean, e: wheat, f: beet, g: rapeseed
Further, pesticide dosage (g/ha) indicates the concentration regulated such that treatment was with only the stated number of grams (g), when calculated per hectare (ha).

wild oat = test: Test Example 3: weedkilling efficacy through soil treatment; G: wild oat; conditions: soil treatment, treatment dosage 320 g/ha
Outline: as §3

black-grass = test: Test Example 3: weedkilling efficacy through soil treatment; H: black-grass; conditions: soil treatment, treatment dosage 320 g/ha
Outline: as §3

Italian ryegrass = test: Test Example 3: weedkilling efficacy through soil treatment; I: Italian ryegrass; conditions: soil treatment, treatment dosage 320 g/ha
Outline: as §3

common wind-grass = test: Test Example 3: weedkilling efficacy through soil treatment; J: common wind-grass; conditions: soil treatment, treatment dosage 320 g/ha
Outline: as §3

Indian mallow = test: Test Example 3: weedkilling efficacy through soil treatment; K: Indian mallow; conditions: soil treatment, treatment dosage 320 g/ha
Outline: as §3

redroot pigweed = test: Test Example 3: weedkilling efficacy through soil treatment; L: redroot pigweed; conditions: soil treatment, treatment dosage 320 g/ha
Outline: as §3

fig-leafed goosefoot = test: Test Example 3: weedkilling efficacy through soil treatment; M: fig-leafed goosefoot; conditions: soil treatment, treatment dosage 320 g/ha
Outline: as §3

chickweed = test: Test Example 3: weedkilling efficacy through soil treatment; N: chickweed; conditions: soil treatment, treatment dosage 320 g/ha
Outline: as §3

birds-eye speedwell = test: Test Example 3: weedkilling efficacy through soil treatment; p: birds-eye speedwell; conditions: soil treatment, treatment dosage 320 g/ha
Outline: as §3

directly sown rice = test: Test Example 3: soil treatment, effect on crop; b: directly sown rice; conditions: soil treatment, treatment dosage 320 g/ha
Outline: as §3

corn = test: Test Example 3: soil treatment, effect on crop; c: corn; conditions: soil treatment, treatment dosage 320 g/ha
Outline: as §3

soybean = test: Test Example 3: soil treatment, effect on crop; d: soybean; conditions: soil treatment, treatment dosage 320 g/ha
Outline: as §3

wheat = test: Test Example 3: soil treatment, effect on crop; e: wheat; conditions: soil treatment, treatment dosage 320 g/ha
Outline: as §3

beet = test: Test Example 3: soil treatment, effect on crop; f: beet; conditions: soil treatment, treatment dosage 320 g/ha
Outline: as §3

rapeseed = test: Test Example 3: soil treatment, effect on crop; g: rapeseed; conditions: soil treatment, treatment dosage 320 g/ha
Outline: as §3

catchweed = test: Test Example 3: weedkilling efficacy through soil treatment; O: catchweed; conditions: soil treatment, treatment dosage 320 g/ha
Outline: as §3

SMILES	A: barnyard grass, weed kill grade (barnyard grass [1])	B: bulrush, weed kill grade (bulrush [2])	C: oval-leafed pondweed, weed kill grade (oval-leafed pondweed [3])	a: transplanted rice, effect on crop grade (transplanted rice)	A (barnyard grass) weedkilling efficacy grade (barnyard grass [4])	B (bulrush) weedkilling efficacy grade (bulrush [5])	C (oval-leafed pondweed) weedkilling efficacy grade (oval-leafed pondweed [6])	D: crabgrass, weedkilling efficacy grade (crabgrass)	E: green foxtail, weedkilling efficacy grade (green foxtail)	F: barnyard grass, weedkilling efficacy grade (barnyard grass [7])	G: wild oat, weedkilling efficacy grade (wild oat)	H: black-grass, weedkilling efficacy grade (black-grass)	I: Italian ryegrass, weedkilling efficacy grade (Italian ryegrass)	J: common wind-grass, weedkilling efficacy grade (common wind-grass)	K: Indian mallow, weedkilling efficacy grade (Indian mallow)	L: redroot pigweed, weedkilling efficacy grade (redroot pigweed)	M: fig-leafed goosefoot, weedkilling efficacy grade (fig-leafed goosefoot)	N: chickweed, weedkilling efficacy grade (chickweed)	b: directly sown rice, effect on crop grade (directly sown rice)	c: corn, effect on crop grade (corn)	also measured
CC(C)(C(=O)Nc1cc(OC(F)F)cc(Cl)n1)N1COCN(c2ccccc2)C1=O [A-2-34]	5 (weed kill ratio 90% or more, (practically complete withering))	5 (weed kill ratio 90% or more, (practically complete withering))	5 (weed kill ratio 90% or more, (practically complete withering))	3 (weed kill ratio 40% or more, less than 70%)	5 (weed kill ratio 90% or more, (practically complete withering))	5 (weed kill ratio 90% or more, (practically complete withering))	5 (weed kill ratio 90% or more, (practically complete withering))	5 (weed kill ratio 90% or more, (practically complete withering))	5 (weed kill ratio 90% or more, (practically complete withering))	5 (weed kill ratio 90% or more, (practically complete withering))	5 (weed kill ratio 90% or more, (practically complete withering))	5 (weed kill ratio 90% or more, (practically complete withering))	5 (weed kill ratio 90% or more, (practically complete withering))	5 (weed kill ratio 90% or more, (practically complete withering))	0 (weed kill ratio 5% or less (practically no effect))	0 (weed kill ratio 5% or less (practically no effect))	4 (weed kill ratio 70% or more, less than 90%)	4 (weed kill ratio 70% or more, less than 90%)	4 (weed kill ratio 70% or more, less than 90%)	0 (weed kill ratio 5% or less (practically no effect))	P: birds-eye speedwell, weedkilling efficacy grade (birds-eye speedwell): 4 (weed kill ratio 70% or more, less than 90%); d: soybean, effect on crop grade (soybean): 0 (weed kill ratio 5% or less (practically no effect)); e: wheat, effect on crop grade (wheat): 0 (weed kill ratio 5% or less (practically no effect)); f: beet, effect on crop grade (beet): 4 (weed kill ratio 70% or more, less than 90%); g: rapeseed, effect on crop grade (rapeseed): 1 (weed kill ratio 5% or more, less than 20%)
CC(C)(C(=O)Nc1cc(Cl)cc(Oc2ccccc2)n1)N1COCN(c2ccccc2)C1=O [A-2-35]	5 (weed kill ratio 90% or more, (practically complete withering))	5 (weed kill ratio 90% or more, (practically complete withering))	5 (weed kill ratio 90% or more, (practically complete withering))	1 (weed kill ratio 5% or more, less than 20%)	4 (weed kill ratio 70% or more, less than 90%)	4 (weed kill ratio 70% or more, less than 90%)	4 (weed kill ratio 70% or more, less than 90%)	4 (weed kill ratio 70% or more, less than 90%)	3 (weed kill ratio 40% or more, less than 70%)	3 (weed kill ratio 40% or more, less than 70%)	0 (weed kill ratio 5% or less (practically no effect))	3 (weed kill ratio 40% or more, less than 70%)	3 (weed kill ratio 40% or more, less than 70%)	4 (weed kill ratio 70% or more, less than 90%)	0 (weed kill ratio 5% or less (practically no effect))	0 (weed kill ratio 5% or less (practically no effect))	0 (weed kill ratio 5% or less (practically no effect))	0 (weed kill ratio 5% or less (practically no effect))	0 (weed kill ratio 5% or less (practically no effect))	0 (weed kill ratio 5% or less (practically no effect))	O: catchweed, weedkilling efficacy grade (catchweed): 0 (weed kill ratio 5% or less (practically no effect)); d: soybean, effect on crop grade (soybean): 0 (weed kill ratio 5% or less (practically no effect)); e: wheat, effect on crop grade (wheat): 0 (weed kill ratio 5% or less (practically no effect)); f: beet, effect on crop grade (beet): 0 (weed kill ratio 5% or less (practically no effect)); g: rapeseed, effect on crop grade (rapeseed): 1 (weed kill ratio 5% or more, less than 20%)
